The values that follow come from a melting point compilation (Tetko et al.; mined from patent text by program, amines drawn as free bases though some values may be those of a salt).

For the molecule `CC1(C)Oc2ccc(C#N)cc2[C@@H](NC(=O)Nc2cccc(CC(=O)O)c2)[C@@H]1O`, the melting point fell in the range of 135 to 138 °C. Molecule `O=CNc1nc(-c2ccccc2)c2cc(Cl)ccc2n1` gave a melting point of 252 °C. With `Cc1nc2cccc(F)c2c(=O)n1C1CCC(=O)NC1=O` (centres undefined) the figure was 275 to 277 °C.

In turn, `O=C(O)C(=O)N1CCC(Oc2ccc(F)cc2)CC1` yielded a melting point of 147 to 149 °C.

Regarding `CCC1(c2ccccc2)CC(N2C(=O)c3ccccc3C2=O)C(=O)NC1=O` (centres undefined), the melting point lay within 174 to 177 °C. `COC(=O)c1ccc2oc(-c3ccccc3OCC(C)OC(=O)c3ccccc3)cc(=O)c2c1` (centres undefined) displayed a melting point of 211 to 213 °C.

Molecule `O=C1CCc2cc(Cl)c(S(=O)(=O)NCc3ccccc3)cc21` returned a melting point of 228 to 231 °C. In the case of `COC(=O)CCc1cccc(OCCC2Oc3ccccc3N(Cc3cccc(Cl)c3)C2=O)c1` (centres undefined), the melting point is 92 to 94 °C. `CC(=O)Nc1c(Cl)cnn1-c1c(F)c(F)c(C(F)(F)F)c(F)c1F` returned a melting point of 45 to 47 °C. Consider `CCCC(C)(CCC)C(=O)O[C@H]1C[C@H](O)C=C2C=C[C@H](C)[C@H](CC[C@@H]3C[C@@H](O)CC(=O)O3)[C@H]21`, for which the melting point is 109 to 111 °C. `CNC(=O)NS(=O)(=O)c1cc2c(cc1OC)OCC(NC(=O)c1cc(F)ccc1OC)C2` (centres undefined) showed a melting point of 260 °C. Regarding `CC(Nc1nc(Oc2cccc3[nH]c(=O)c(N)nc23)cc(-c2ccc(C(F)(F)F)cc2)n1)c1ccc(F)cc1` (centres undefined), the melting point is 434 °C. For the molecule `Cn1nnc(N(Cc2ccccc2)C(=O)C2CCCC2)n1`, the melting point was 54 °C.

In turn, `CC(C)n1nc(-c2cnc(N)nc2-c2cccs2)ccc1=O` showed a melting point of 213 °C. On to `C#CCOc1cc(C(=O)OC)cc(OC)c1OC`, for which the melting point lay in the range of 72 to 73.5 °C. The same measure for `Cc1ccc(S(=O)(=O)N2CCCC2c2cccc(C)c2)cc1` (racemic): 79 °C; for `O=c1[nH]c2ccccc2n1CCCN1CCC(c2nsc3ccccc23)CC1`: 185 to 187 °C.

The molecule `CCn1c(Oc2cccc(NC=O)c2)nnc1[C@@H](C)NS(=O)(=O)c1ccc(Cl)c(Cl)c1` showed a melting point of 168 to 170 °C. The molecule `COCCNC(=O)CC1CN=C(c2cc3cc(Oc4ccc(S(C)(=O)=O)nc4)cc(OC)c3[nH]2)S1` (centres undefined) registered a melting point of 175 to 176 °C. With `Cn1nnnc1SCc1ccccn1`, the melting point lay in the range of 78 to 81 °C. With `O=C(c1ccc(F)cc1)C1(c2ccc(F)cc2)CCN(Cc2ccccc2)CC1` the figure was 136 to 138 °C; with `C[C@@H](C(=O)OC(C)(C)C)N(Cc1ccccc1)S(=O)(=O)c1ccc2c(Cl)cnc(Cl)c2c1`, 92 to 96 °C. In turn, `C=CCOc1ccc(Cl)c2c(=O)c3ccccc3sc12` showed a melting point of 135 to 136 °C.

`CC(C)C[C@@H](C(=O)N1CCN(C(c2ccc(F)cc2)c2ccc(F)cc2)CC1)N(C)C1CCCCC1` returned a melting point of 171 to 182 °C. Consider `CCOC(=O)c1cc2cc(OCCNC[C@H](O)COc3ccccc3)ccc2s1`, for which the melting point was in the range of 99 to 100 °C.

Molecule `CCOc1c(C(N)=O)oc2c3ccccc3n(-c3ccccc3)c12` displayed a melting point of 187 to 188 °C. As to `CCc1cc(-c2[nH]c3ccccc3c2C)cc(CC)c1OC`, the melting point lay in the range of 95.7 to 96.1 °C. `C[C@H](O)[C@@H](CCc1cccc(Cl)c1Cl)n1cnc(C(N)=O)c1` displayed a melting point of 70 to 75 °C.

With `C[C@@H](C[C@H](N)C(=O)O)C(=O)O`, the melting point lay in the range of 163 to 164 °C. Take `Cc1ccccc1-c1c(C(C)n2cnc3c(N)ncnc32)oc2ccccc2c1=O` (centres undefined): the melting point lay in the range of 202 to 205 °C. As to `O=C(O)c1cccc(-c2nc(-c3ccc(F)cc3F)cs2)c1`, the melting point is 255 to 256 °C.

Consider `CN(C)C(=O)c1ccccc1Sc1c[nH]c2ccccc12`, for which the melting point lay in the range of 194 to 196 °C. The same measure for `CC(C)(C)OC(=O)N1CCC(C(=O)C2CCCCC2=O)CC1` (centres undefined): 71 to 72 °C. With `O=C(O)c1nc(C(Cl)(Cl)Cl)n(-c2cccc(C(F)(F)F)c2)n1`, the melting point came out at 126 °C.

The term melting point denotes the temperature of the solid-liquid transition.
